Measured values taken from PubChem BioAssay (NCI).
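These data come from cells grown in 96-well plates and exposed to compound for 48 hours at five concentrations. Definition used: TGI = concentration required for complete inhibition of growth.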

Experiments:
Experiment in all cases: NCI-60 cell line screen, 48 h
SF-268 CNS = system: SF-268 CNS
HOP-62 NSCLC = system: HOP-62 NSCLC
OVCAR-5 ovarian = system: OVCAR-5 ovarian
K-562 leukemia = system: K-562 leukemia
SK-MEL-2 melanoma = system: SK-MEL-2 melanoma
MOLT-4 leukemia = system: MOLT-4 leukemia
ACHN renal = system: ACHN renal
NCI-H460 lung = system: NCI-H460 lung
SN12C renal = system: SN12C renal
SNB-19 CNS = system: SNB-19 CNS
SW-620 colon = system: SW-620 colon
SK-OV-3 ovarian = system: SK-OV-3 ovarian
T-47D breast = system: T-47D breast
HS 578T breast = system: HS 578T breast
SK-MEL-5 melanoma = system: SK-MEL-5 melanoma
TK-10 renal = system: TK-10 renal
CAKI-1 renal = system: CAKI-1 renal
COLO 205 colon = system: COLO 205 colon
RXF 393 renal = system: RXF 393 renal
OVCAR-4 ovarian = system: OVCAR-4 ovarian
NCI-H23 lung = system: NCI-H23 lung
RPMI-8226 leukemia = system: RPMI-8226 leukemia
HL-60(TB) leukemia = system: HL-60(TB) leukemia
SNB-75 CNS = system: SNB-75 CNS
NCI/ADR-RES ovarian = system: NCI/ADR-RES ovarian
A498 renal = system: A498 renal
PC-3 prostate = system: PC-3 prostate
MCF7 breast = system: MCF7 breast
CCRF-CEM leukemia = system: CCRF-CEM leukemia
SF-295 CNS = system: SF-295 CNS
SF-539 CNS = system: SF-539 CNS
786-0 renal = system: 786-0 renal
NCI-H522 lung = system: NCI-H522 lung
MALME-3M melanoma = system: MALME-3M melanoma
OVCAR-8 ovarian = system: OVCAR-8 ovarian
A549 NSCLC = system: A549 NSCLC
KM12 colon = system: KM12 colon
HCC-2998 colon = system: HCC-2998 colon
UACC-257 melanoma = system: UACC-257 melanoma
HCT-116 colon = system: HCT-116 colon
UO-31 renal = system: UO-31 renal
EKVX NSCLC = system: EKVX NSCLC
M14 melanoma = system: M14 melanoma
HCT-15 colon = system: HCT-15 colon
DU-145 prostate = system: DU-145 prostate
BT-549 breast = system: BT-549 breast
IGROV1 ovarian = system: IGROV1 ovarian
HOP-92 NSCLC = system: HOP-92 NSCLC
OVCAR-3 ovarian = system: OVCAR-3 ovarian
MDA-MB-435 = system: MDA-MB-435

With `Fc1ccc(C2NC(=S)NC3=C2CCOc2c3ccc3ccccc23)cc1` (stereo not given) the TGI (SF-268 CNS) was > 100 µM, the TGI (HOP-62 NSCLC) was > 100 µM and the TGI (OVCAR-5 ovarian) was > 100 µM. For the same molecule, the TGI (K-562 leukemia) was > 100 µM, the TGI (SK-MEL-2 melanoma) was > 100 µM and the TGI (MOLT-4 leukemia) was > 100 µM. The TGI (ACHN renal) was > 100 µM, the TGI (NCI-H460 lung) was > 100 µM and the TGI (SN12C renal) was > 100 µM. For the same molecule, the TGI (SNB-19 CNS) was > 100 µM, the TGI (SW-620 colon) was > 100 µM and the TGI (SK-OV-3 ovarian) was > 100 µM. For the same molecule, the TGI (T-47D breast) was 9.44 µM, the TGI (HS 578T breast) was > 100 µM and the TGI (SK-MEL-5 melanoma) was 37.1 µM. The TGI (TK-10 renal) was > 100 µM, the TGI (CAKI-1 renal) was > 100 µM and the TGI (COLO 205 colon) was 30.3 µM. For the same molecule, the TGI (RXF 393 renal) was > 100 µM, the TGI (OVCAR-4 ovarian) was > 100 µM and the TGI (NCI-H23 lung) was > 100 µM. The TGI (RPMI-8226 leukemia) was > 100 µM, the TGI (HL-60(TB) leukemia) was > 100 µM and the TGI (SNB-75 CNS) was > 100 µM. For the same molecule, the TGI (NCI/ADR-RES ovarian) was 76.2 µM, the TGI (A498 renal) was 79.5 µM and the TGI (PC-3 prostate) was > 100 µM. The TGI (MCF7 breast) was > 100 µM, the TGI (CCRF-CEM leukemia) was > 100 µM and the TGI (SF-295 CNS) was > 100 µM. The TGI (SF-539 CNS) was > 100 µM, the TGI (786-0 renal) was > 100 µM and the TGI (NCI-H522 lung) was > 100 µM. The TGI (MALME-3M melanoma) was > 100 µM, the TGI (OVCAR-8 ovarian) was > 100 µM and the TGI (A549 NSCLC) was > 100 µM. The TGI (KM12 colon) was > 100 µM, the TGI (HCC-2998 colon) was 69.1 µM and the TGI (UACC-257 melanoma) was > 100 µM. The TGI (HCT-116 colon) was 30.1 µM, the TGI (UO-31 renal) was > 100 µM and the TGI (EKVX NSCLC) was > 100 µM. The TGI (M14 melanoma) was > 100 µM, the TGI (HCT-15 colon) was > 100 µM and the TGI (DU-145 prostate) was > 100 µM. For the same molecule, the TGI (BT-549 breast) was > 100 µM, the TGI (IGROV1 ovarian) was > 100 µM and the TGI (HOP-92 NSCLC) was > 100 µM. For the same molecule, the TGI (OVCAR-3 ovarian) was > 100 µM and the TGI (MDA-MB-435) was 43.4 µM.
